In ChEMBL document CHEMBL1154885, “Heat shock protein 90: inhibitors in clinical trials” (J Med Chem, 2010):
Converted amounts (≈) assume the structure as drawn. Each block holds one compound with its values, some of them ahead of it.

Key:
[1] = biological target: T1, Heat shock protein HSP 90-beta (Homo sapiens, UniProt P08238)
Description: (§1) Inhibition of HSP90-mediated client protein HER2 degradation

[2] = Solubility in water; format: physicochemical
[3] = Cmax in plasma of mouse bearing human A2780 cells at 80 mg/kg, ip administered as DMSO/egg phospholipid formulation; format: ADME, organism-based; design: dose 80 mg/kg, route intraperitoneal
[4] = Cmax in tumor of mouse bearing human A2780 cells at 80 mg/kg, ip administered as DMSO/egg phospholipid formulation; format: ADME, organism-based, Neoplasm; design: dose 80 mg/kg, route intraperitoneal; settings: read-out: Cmax_tumor
[5] = Cmax in liver of mouse bearing human A2780 cells at 80 mg/kg, ip administered as DMSO/egg phospholipid formulation; format: ADME, organism-based; design: dose 80 mg/kg, route intraperitoneal
[6] = AUC in plasma of mouse bearing human A2780 cells at 80 mg/kg, ip administered as DMSO/egg phospholipid formulation; format: ADME, organism-based; design: dose 80 mg/kg, route intraperitoneal
[7] = AUC in tumor of mouse bearing human A2780 cells at 80 mg/kg, ip administered as DMSO/egg phospholipid formulation; format: ADME, organism-based, Neoplasm; design: dose 80 mg/kg, route intraperitoneal
[8] = AUC in liver of mouse bearing human A2780 cells at 80 mg/kg, ip administered as DMSO/egg phospholipid formulation; format: ADME, organism-based; design: dose 80 mg/kg, route intraperitoneal
Plasma [9] = test: Apparent volume of distribution in plasma of mouse bearing human A2780 cells at 80 mg/kg, ip administered as DMSO/egg phospholipid formulation; format: ADME, organism-based; design: dose 80 mg/kg, route intraperitoneal; settings: in vivo
[10] = Apparent volume of distribution in tumor of mouse bearing human A2780 cells at 80 mg/kg, ip administered as DMSO/egg phospholipid formulation; format: ADME, organism-based, Neoplasm; design: dose 80 mg/kg, route intraperitoneal; settings: in vivo
Liver [11] = test: Apparent volume of distribution in liver of mouse bearing human A2780 cells at 80 mg/kg, ip administered as DMSO/egg phospholipid formulation; format: ADME, organism-based; design: dose 80 mg/kg, route intraperitoneal; settings: in vivo
[12] = Clearance in plasma of mouse bearing human A2780 cells at 80 mg/kg, ip administered as DMSO/egg phospholipid formulation; format: ADME, organism-based; design: dose 80 mg/kg, route intraperitoneal
[13] = Clearance in tumor of mouse bearing human A2780 cells at 80 mg/kg, ip administered as DMSO/egg phospholipid formulation; format: ADME, organism-based, Neoplasm; design: dose 80 mg/kg, route intraperitoneal; settings: in vivo
Liver [14] = test: Clearance in liver of mouse bearing human A2780 cells at 80 mg/kg, ip administered as DMSO/egg phospholipid formulation; format: ADME, organism-based; design: dose 80 mg/kg, route intraperitoneal; settings: in vivo
[15] = Half life in plasma of mouse bearing human A2780 cells at 80 mg/kg, ip administered as DMSO/egg phospholipid formulation; format: ADME, organism-based; design: dose 80 mg/kg, route intraperitoneal
[16] = Half life in tumor of mouse bearing human A2780 cells at 80 mg/kg, ip administered as DMSO/egg phospholipid formulation; format: ADME, organism-based, Neoplasm; design: dose 80 mg/kg, route intraperitoneal
[17] = Half life in liver of mouse bearing human A2780 cells at 80 mg/kg, ip administered as DMSO/egg phospholipid formulation; format: ADME, organism-based; design: dose 80 mg/kg, route intraperitoneal
A2780 = test: Antitumor activity against human A2780 cells xenografted in mouse at 80 mg/kg, ip administered as DMSO/egg phospholipid formulation; format: functional; settings: route intraperitoneal, read-out: TGI
[18] = Cmax in human at 220 mg/m2 administered as DMSO/egg phospholipid formulation; format: ADME, organism-based; settings: in vivo
[19] = Half life in human at 220 mg/m2 administered as DMSO/egg phospholipid formulation; format: ADME, organism-based; settings: in vivo
[20] = AUC in human at 220 mg/m2 administered as DMSO/egg phospholipid formulation; format: ADME, organism-based; settings: plasma
[21] = Clearance in human at 220 mg/m2 administered as DMSO/egg phospholipid formulation; format: ADME, organism-based; settings: in vivo
Homo sapiens [22] = test: Toxicity in human assessed as maximum tolerated dose administered on daily schedule administered as DMSO/egg phospholipid formulation; format: organism-based; settings: in vivo
Homo sapiens [23] = test: Toxicity in human assessed as maximum tolerated dose administered on 3 days schedule administered as DMSO/egg phospholipid formulation; format: organism-based; settings: in vivo, 72 h
NCI-H1650 = test: Antitumor activity against human NCI-H1650 cells xenografted in mouse at 100 mg/kg administered daily for 5 days a week; format: functional; settings: NCI-H1650, 120 h, read-out: TGI
[24] = Chemical stability assessed as half life; format: physicochemical
[25] = Tmax in human at 220 mg/m2 administered as DMSO/egg phospholipid formulation; format: ADME, organism-based; settings: in vivo
[26] = Volume of distribution at steady state in human at 220 mg/m2 administered as DMSO/egg phospholipid formulation; format: ADME, organism-based; settings: in vivo, read-out: Vdss
[27] = biological target: T1, Heat shock protein HSP 90-beta; remark: listed apart in the source
Description: Binding affinity to HSP90 under non-reducing conditions in absence of TECP

[28] = biological target: T1, Heat shock protein HSP 90-beta; remark: listed apart in the source
Description: Inhibition of HSP90-mediated client protein HER2 degradation in human MCF7 cells

[29] = biological target: T1, Heat shock protein HSP 90-beta; remark: listed apart in the source
Description: as §1

[30] = biological target: T1, Heat shock protein HSP 90-beta; remark: listed apart in the source
Description: Binding affinity to HSP90 under reducing conditions in presence of TECP

[31] = Metabolic stability in human liver microsomes assessed as drug remaining after 30 mins; format: ADME, Microsome; settings: read-out: Stability
[32] = Metabolic stability in mouse liver microsomes assessed as drug remaining after 30 mins; format: ADME, Microsome; settings: read-out: Stability
[33] = Cmax in plasma of mouse bearing human WM266.4 cells at 50 mg/kg, iv; format: ADME, organism-based; design: dose 50 mg/kg, route intravenous
[34] = Cmax in tumor of mouse bearing human WM266.4 cells at 50 mg/kg, iv; format: ADME, organism-based, Neoplasm; design: dose 50 mg/kg, route intravenous; settings: read-out: Cmax_tumor
[35] = AUC in plasma of mouse bearing human WM266.4 cells at 50 mg/kg, iv; format: ADME, organism-based; design: dose 50 mg/kg, route intravenous
[36] = AUC in tumor of mouse bearing human WM266.4 cells at 50 mg/kg, iv; format: ADME, organism-based, Neoplasm; design: dose 50 mg/kg, route intravenous
Plasma [37] = test: Apparent volume of distribution in plasma of mouse bearing human WM266.4 cells at 50 mg/kg, iv; format: ADME, organism-based; design: dose 50 mg/kg, route intravenous; settings: in vivo
[38] = Apparent volume of distribution in tumor of mouse bearing human WM266.4 cells at 50 mg/kg, iv; format: ADME, organism-based, Neoplasm; design: dose 50 mg/kg, route intravenous; settings: read-out: Vz
Plasma [39] = test: Clearance in plasma of mouse bearing human WM266.4 cells at 50 mg/kg, iv; format: ADME, organism-based; design: dose 50 mg/kg, route intravenous; settings: in vivo
[40] = Clearance in tumor of mouse bearing human WM266.4 cells at 50 mg/kg, iv; format: ADME, organism-based, Neoplasm; design: dose 50 mg/kg, route intravenous; settings: in vivo
[41] = Half life in tumor of mouse bearing human WM266.4 cells at 50 mg/kg, iv; format: ADME, organism-based, Neoplasm; design: dose 50 mg/kg, route intravenous
[42] = AUC in tumor of mouse bearing human WM266.4 cells at 50 mg/kg, ip; format: ADME, organism-based, Neoplasm; design: dose 50 mg/kg, route intraperitoneal
Plasma [43] = test: Apparent volume of distribution in plasma of mouse bearing human WM266.4 cells at 50 mg/kg, ip; format: ADME, organism-based; design: dose 50 mg/kg, route intraperitoneal; settings: in vivo
[44] = Apparent volume of distribution in tumor of mouse bearing human WM266.4 cells at 50 mg/kg, ip; format: ADME, organism-based, Neoplasm; design: dose 50 mg/kg, route intraperitoneal; settings: in vivo
[45] = Clearance in plasma of mouse bearing human WM266.4 cells at 50 mg/kg, ip; format: ADME, organism-based; design: dose 50 mg/kg, route intraperitoneal
[46] = Clearance in tumor of mouse bearing human WM266.4 cells at 50 mg/kg, ip; format: ADME, organism-based, Neoplasm; design: dose 50 mg/kg, route intraperitoneal; settings: in vivo
[47] = Half life in plasma of mouse bearing human WM266.4 cells at 50 mg/kg, ip; format: ADME, organism-based; design: dose 50 mg/kg, route intraperitoneal
[48] = Half life in tumor of mouse bearing human WM266.4 cells at 50 mg/kg, ip; format: ADME, organism-based, Neoplasm; design: dose 50 mg/kg, route intraperitoneal
Mus musculus [49] = test: Hepatic blood flow in mouse bearing human WM266.4 cells at 50 mg/kg, ip; format: ADME, organism-based, Liver; design: dose 50 mg/kg, route intraperitoneal; settings: in vivo
[50] = Drug level in tumor of mouse bearing human WM266.4 cells at 50 mg/kg, ip administered once daily for 5 days measured after 24 hrs after final dose; format: ADME, organism-based, Neoplasm; design: dose 50 mg/kg, route intraperitoneal; settings: read-out: Drug uptake
[51] = Toxicity in mouse assessed as maximum tolerated dose; format: organism-based; settings: in vivo
Mus musculus [52] = test: Toxicity in mouse assessed as body weight loss at 70 mg/kg, ip after 8 days; format: organism-based; design: dose 70 mg/kg, route intraperitoneal; settings: in vivo, 192 h
BT-474 = test: Antitumor activity against human BT474 cells xenografted in mouse at 50 mg/kg, ip; format: functional; settings: BT-474, ip, route intraperitoneal, read-out: TGI
[53] = Antitumor activity against human U87MG cells xenografted in mouse assessed as tumor regression at 50 mg/kg, ip; format: functional, U-87MG ATCC; settings: route intraperitoneal
Plasma [54] = test: Half life in plasma of mouse bearing human WM266.4 cells at 50 mg/kg, iv; format: ADME, organism-based; design: dose 50 mg/kg, route intravenous; settings: in vivo
[55] = AUC in plasma of mouse bearing human WM266.4 cells at 50 mg/kg, ip; format: ADME, organism-based; design: dose 50 mg/kg, route intraperitoneal
[56] = Cmax in tumor of mouse bearing human WM266.4 cells at 50 mg/kg, ip; format: ADME, organism-based, Neoplasm; design: dose 50 mg/kg, route intraperitoneal; settings: read-out: Cmax_tumor
[57] = Cmax in plasma of mouse bearing human WM266.4 cells at 50 mg/kg, ip; format: ADME, organism-based; design: dose 50 mg/kg, route intraperitoneal

T1 sequence (P08238 whole entry): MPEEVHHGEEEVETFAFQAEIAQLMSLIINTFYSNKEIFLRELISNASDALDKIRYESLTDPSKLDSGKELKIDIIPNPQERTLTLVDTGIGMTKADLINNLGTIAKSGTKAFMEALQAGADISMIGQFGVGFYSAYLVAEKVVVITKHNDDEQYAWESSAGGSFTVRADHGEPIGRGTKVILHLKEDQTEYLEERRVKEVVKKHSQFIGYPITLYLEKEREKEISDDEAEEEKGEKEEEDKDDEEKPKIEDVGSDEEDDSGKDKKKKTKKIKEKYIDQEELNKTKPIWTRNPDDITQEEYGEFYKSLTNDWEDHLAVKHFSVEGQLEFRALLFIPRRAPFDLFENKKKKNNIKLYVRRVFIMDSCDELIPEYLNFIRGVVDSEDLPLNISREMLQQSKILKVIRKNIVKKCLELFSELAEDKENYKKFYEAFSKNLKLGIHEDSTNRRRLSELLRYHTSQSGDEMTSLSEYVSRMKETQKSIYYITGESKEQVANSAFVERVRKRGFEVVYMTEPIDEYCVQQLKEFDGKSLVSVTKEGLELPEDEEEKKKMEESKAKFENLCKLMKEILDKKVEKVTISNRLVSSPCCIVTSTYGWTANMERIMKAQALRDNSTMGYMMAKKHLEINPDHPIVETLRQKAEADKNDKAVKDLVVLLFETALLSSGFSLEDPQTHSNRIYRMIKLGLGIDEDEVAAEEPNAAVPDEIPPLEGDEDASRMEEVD

Activity [1]: 30 nM
SMILES: C#CCCCn1c(Sc2cc3c(cc2Br)OCO3)nc2c(N)ncnc21

SMILES: C=CCNC1=C2C[C@@H](C)C[C@H](OC)[C@H](O)[C@@H](C)/C=C(\C)[C@H](OC(N)=O)[C@@H](OC)/C=C\C=C(/C)C(=O)NC(=CC1=O)C2=O [TANESPIMYCIN]
solubility [2]: 20 µg/mL (≈ 34.1 µM)
Cmax [3]: 35 µM
Cmax [4]: 15 µM
Cmax [5]: 126 µM
AUC [6]: 68 µM·h
AUC [7]: 80 µM·h
AUC [8]: 263 µM·h
Vz (Plasma [9]): 0.05 L
Vz [10]: 0.34 L
Vz (Liver [11]): 0.01 L
CL/F [12]: 0.667 mL/min
CL [13]: 0.03 L/h
CL (Liver [14]): 0.01 L/h
half-life [15]: 0.88 h
half-life [16]: 7.5 h
half-life [17]: 0.86 h
inhibition in vivo at 80 mg/kg (A2780): 70%
Cmax [18]: 7.5 µM
half-life [19]: 3.8 h
AUC [20]: 22 µM·h
clearance [21]: 700 mL/min
MTD (Homo sapiens [22]): 56 mg/m2
MTD (Homo sapiens [23]): 220 mg/m2
inhibition in vivo at 100 mg/kg (NCI-H1650): 30%
half-life [24]: 9.8 h

SMILES: CO[C@H]1/C=C\C=C(/C)C(=O)NC2=CC(=O)C(N)=C(C[C@@H](C)C[C@H](OC)[C@H](O)[C@@H](C)/C=C(\C)[C@@H]1OC(N)=O)C2=O
Cmax [3]: 4.8 µM
Cmax [4]: 3.5 µM
Cmax [5]: 18 µM
AUC [6]: 15 µM·h
AUC [7]: 43 µM·h
AUC [8]: 59 µM·h
Vz (Plasma [9]): 0.18 L
Vz [10]: 0.49 L
Vz (Liver [11]): 0.06 L
CL/F [12]: 1.83 mL/min
CL [13]: 0.03 L/h
CL (Liver [14]): 0.02 L/h
half-life [15]: 1.2 h
half-life [16]: 13.7 h
half-life [17]: 1.8 h
Cmax [18]: 3 µM
Tmax [25]: 1.7 h
half-life [19]: 6.9 h
AUC [20]: 21 µM·h
Vd [26]: 230 L
Ki [27]: 21 nM
IC50 [28]: 12 nM
IC50 [29]: 7 nM
Ki [30]: 3 nM

SMILES: CCOP(=O)(CCn1c(Sc2nc3cccc(Cl)c3s2)nc2c(N)ncnc21)OCC
Activity [1]: 30 nM

SMILES: CCNC(=O)c1noc(-c2cc(C(C)C)c(O)cc2O)c1-c1ccc(CN2CCOCC2)cc1 [LUMINESPIB]
remaining at 0.5 h [31]: 41%
remaining at 0.5 h [32]: 31%
Cmax [33]: 49 µM
Cmax [34]: 14 µM
AUC [35]: 15 µM·h
AUC [36]: 70 µM·h
Vz (Plasma [37]): 0.875 L
Vd [38]: 0.44 L
CL (Plasma [39]): 0.143 L/h
CL [40]: 0.02 L/h
half-life [41]: 15 h
AUC [42]: 36 µM·h
Vz (Plasma [43]): 0.077 L
Vz [44]: 0.883 L
CL/F [45]: 1.37 mL/min
CL [46]: 0.41 L/h
half-life [47]: 1 h
half-life [48]: 15 h
LBF (Mus musculus [49]): 108 mL/h
concentration at 24 h [50]: 6.8 µM
MTD [51]: 50 mg/kg
Activity (Mus musculus [52]): 10%
inhibition in vivo at 50 mg/kg (BT-474): 79%
Activity [53]: 58%
t1/2 (Plasma [54]): 1 h
AUC [55]: 26 µM·h
Cmax [56]: 6 µM
Cmax [57]: 53 µM
